pEC50, pIC50: −log10 of the molar value. Like-named read-outs stand apart in the source and are kept apart here.
Legend:
[1] = test system: NF54-pfs16-LUC-GFP stage IV gametocytes; assay: Plasmodium falciparum late stage gametocyte (LSG) image-based assay; format: cell-based; conditions: for pIC50 / IC50: Plasmodium falciparum; for IC50: NF54, read-out: Pf Stage IV GAMS Discovery Biology IC50 µM, stage IV gametocytes, Discovery Biology
[2] = test system: T. cruzi intracellular amastigotes; assay: Intracellular anti-Trypanosoma cruzi image-based assay (amastigotes); format: cell-based
3T3 host cells = assay: T. cruzi assay, activity against 3T3 host cells; format: cell-based; conditions: reference compound set; IA = inactive at 16.4 μM
How it was run: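 3T3 cells were seeded on collagen-coated plates, incubated 24 h at 37 °C, infected with T. cruzi at MOI 5:1, and washed free of extracellular parasites after a further 24 h. Following 48 h compound exposure, cells were fixed, stained with Hoechst 33342 and HCS CellMask Green, and imaged by high-content analysis.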

[3] = test system: T. b. brucei 427 bloodstream trypanosomes; assay: T. b. brucei resazurin viability assay; format: cell-based, Trypanosoma brucei brucei; conditions: for pIC50: Trypanosoma brucei
[4] = test system: L. donovani MHOM/IN/80/DD8 intracellular amastigotes; assay: Leishmania donovani intracellular amastigote assay in THP-1 cells; format: cell-based; conditions: for IC50: intracellular amastigotes, Discovery Biology, some values carry an asterisk, read-out: L, donovani Discovery Biology IC50 µM
[5] = test system: Plasmodium falciparum 3D7 asexual blood stage; assay: microbe, parasite or virus in culture; conditions: for IC50: 3D7, read-out: Pf 3D7 Discovery Biology IC50 µM, P. falciparum 3D7 asexual blood stage, Discovery Biology
[6] = HEK293 resazurin cell cytotoxicity assay; conditions: human
P. falciparum ABS = conditions: cited from earlier work; for pEC50: ChEMBL Data, read-out: TCMDC (ref 93) EX50; for pIC50: Pf 3D7, ref Pathogen Box supporting information, read-out: Pf 3D7 Pbox IC50
HEK293 cells [7] = assay: HEK293 resazurin cell cytotoxicity assay
Kinase CDPK1 = biological target: Kinase CDPK1; set-up: method as in earlier work; conditions: ChEMBL Data; read-out: CROWTHER ref 101) Kinase CDPK1 IC50; cited from earlier work
[8] = test system: P. falciparum stage V gametocytes; conditions: stage V gametocytes; ref Pathogen Box supporting information; read-out: PF stage V GAMS PBox IC50; cited from earlier work
liver stage = conditions: liver stage; ref Pathogen Box supporting information; read-out: LIVER STAGE Pbox IC50; cited from earlier work
HepG2 = conditions: cited from earlier work; for CC50: read-out: HepG2 PBox CC50 µM
[9] = test system: Plasmodium falciparum 3D7 asexual blood stage
[10] = test system: T. cruzi C4 β-galactosidase reporter parasite in MRC 5SV2 host cells; conditions: ref Pbox supporting information; read-out: T. cruzi Pbox IC50; cited from earlier work
T. brucei brucei = conditions: ref Pbox supporting information; read-out: T.b. brucei Pbox IC50; cited from earlier work
T. brucei rhodesiense = conditions: ref Pbox supporting information; read-out: T .b. rohdensie Pbox IC50; cited from earlier work
[11] = test system: L. donovani axenic amastigotes; set-up: method as in PBox supporting information; conditions: ref PBox supporting information; cited from earlier work
L. major = test system: L. major; set-up: method as in Pbox supporting information; conditions: ref Pbox supporting information; cited from earlier work
[12] = test system: L. infanium (macrophages); set-up: method as in Pbox supporting information; conditions: ref Pbox supporting information; cited from earlier work
[13] = test system: L. donovani (macrophages); set-up: method as in Pbox supporting information; conditions: ref Pbox supporting information; cited from earlier work
infected PMM = test system: infected PMM; set-up: method as in Pbox supporting information; conditions: ref Pbox supporting information, read-out: Toxicity on infected PMM Pbox IC50; cited from earlier work
HEK293 cells [14] = test system: HEK293 cells
[15] = test system: Plasmodium cGMP-dependent protein kinase (PfPKG); set-up: method as in PMID 16325279, PMID 20643897; conditions: cited from earlier work
barber's pole worm = test system: barber's pole worm; set-up: method as in PMID 27524698; conditions: cited from earlier work
[16] = test system: L. infanium (macrophages); set-up: method as in Pathogen Box supporting information; conditions: ref Pathogen Box supporting information, read-out: L. infanium (macrophages) Pbox IC50; cited from earlier work
[17] = NF54, read-out: Antiplasmodial IC50 (GAM / LSG), PBox compounds, stage IV gametocytes, single determination
[18] = Trypanosoma cruzi, 48 h, read-out: IC50 T. cruzi (Discovery Biology)
[19] = read-out: IC50 T. brucei brucei (Discovery Biology)
[20] = Leishmania donovani, THP-1, read-out: IC50 L. donovani (Discovery Biology), PBox compounds, intracellular amastigotes
[21] = 3D7, read-out: Antiplasmodial IC50 (ABS), PBox compounds, P. falciparum 3D7
[22] = Homo sapiens, HEK293, read-out: HEK % Inhibition 20uM/IC50 Discovery Biology
[23] = HepG2 CC50, ref Pathogen Box supporting information
[24] = HepG2 cytotoxicity, ref PBox supporting information
[25] = ref PBox supporting information
[26] = Trypanosoma cruzi, intracellular amastigotes, Discovery Biology, read-out: T cruzi Discovery Biology IC50

CC(C)(C)[C@H]1CC[C@H](CC2=C(O)C(=O)c3ccccc3C2=O)CC1 [Buparvaquone, reference compound]
pIC50 ([1]; NF54, read-out: IC50 P. falciparum NF54 LSG, reference compound set, 11-point dose response, IA = inactive at 20 μM): 5.28
pIC50 ([2]; Trypanosoma cruzi, reference compound set, IA = inactive at 16.4 μM, read-out: IC50 T. cruzi intracellular amastigotes): 5.31
Emax ([2]; Trypanosoma cruzi, reference compound set, read-out: T. cruzi Emax (maximal % inhibition plateau in dose response curve)): 98.5%
pIC50 (3T3 host cells): < 4.79
pIC50 ([3]; reference compound set, IA = inactive at 20 μM, read-out: IC50 T. brucei brucei trypomastigotes): < 4.70
pIC50 ([4]; Leishmania donovani, THP-1, read-out: IC50 L. donovani n = 1, reference compound set, first test, IA = inactive at 20 μM): 5.73
inhibition at 20 µM ([4]; Leishmania donovani, THP-1, reference compound set, second test, 20 μM, read-out: percent inhibition at the top screening dose, L. donovani n = 2): 60%
pIC50 ([5]; 3D7, read-out: IC50 P. falciparum 3D7 ABS, reference compound set, 11-point dose response, IA = inactive at 20 μM): 6.85
IC50 at 72 h ([6]; HEK293 cells): > 20000 nM

c1ccc(-c2nc(NC3CCCCC3)cc(C3CC3)n2)nc1 [MMV021013]
pIC50 [1, 17]: 6.72
pIC50 [2, 18]: 5.78
pIC50 [3, 19]: 5.45
pIC50 [4, 20]: 5.83
pEC50 (P. falciparum ABS; TCMDC set, P. falciparum): 6.14
pIC50 [5, 21]: 6.34
selectivity ratio at 72 h [6]: > 5
inhibition at 20 µM (HEK293 cells [7]; [22]): 83%

Nc1ncc(-c2cn[nH]c2)cc1-c1nc2cc(Cl)cnc2[nH]1 [MMV023370]
pEC50 (P. falciparum ABS; TCMDC): 6.04
pIC50 (P. falciparum ABS): 6.40
pIC50 (Kinase CDPK1): 6.55

CN(C(=O)c1cc2c(-c3cncnc3)cccc2[nH]1)c1ccccc1 [MMV024443]
IC50 [1]: 2.71 µM
pEC50 (P. falciparum ABS; TCMDC): 6.20
pIC50 (P. falciparum ABS): 6.14
pIC50 [8]: 6.24
pIC50 (liver stage): 5.99
pIC50 (Kinase CDPK1): 6.57
CC50 (HepG2; [23]): > 10 µM
IC50 [5]: 1.69 µM

CC(C)(CN)c1nc(-c2ccc(Cl)c(O)c2)c(-c2ccnc(N)n2)[nH]1 [MMV030734]
pEC50 (P. falciparum ABS; TCMDC): 6.01
pIC50 (P. falciparum ABS): 6.39
pIC50 (liver stage): 6.49
pIC50 (Kinase CDPK1): 8.15
CC50 (HepG2; [23]): > 10 µM

CCOC(=O)c1c(NC(=O)c2c(F)c(F)c(F)c(F)c2F)sc(C(N)=O)c1C [MMV153413]
pIC50 [1, 17]: 5.97
pIC50 [3, 19]: 5.52
activity in the Discovery Biology ABS assay [9]: not ABS activity
CC50 (HepG2; [24]): 4.2 µM
selectivity ratio at 72 h [6]: > 5

Cc1nc(-c2ccccn2)nc(N2CCC(Cc3ccccc3)C2)c1Cl (centres unmarked) [MMV659004]
pIC50 [1, 17]: 6.17
pIC50 [10]: 6.01
pIC50 (T. brucei brucei): 5.18
pIC50 (T. brucei rhodesiense): 5.25
pIC50 [11]: 7.52
pIC50 (L. major): 5.05
pIC50 [12]: 5.39
pIC50 [13]: 5.38
pIC50 (infected PMM): 4.78
HepG2 PBox CC20 (HepG2; [25]): 10200 nM
pIC50 [5, 21]: 5.73
pIC50 (HEK293 cells [7]; [22]): < 4.70

CC(C)(C)OC(=O)N1CCN(c2cc(-c3ccc(Oc4ccccc4)cc3)n[nH]2)CC1 [MMV676057]
pIC50 [10]: 5.03
pIC50 (T. brucei brucei): 5.41
pIC50 (T. brucei rhodesiense): 5.57
pIC50 [11]: 5.88
pIC50 (L. major): 4.89
pIC50 [12]: 4.99
pIC50 [13]: < 5.00
pIC50 (infected PMM): 4.70
HepG2 PBox CC20 (HepG2; [25]): 4000 nM

Nc1nc2ccc(-c3cncc(Oc4ccc(F)cc4)c3)cc2[nH]1 [MMV687248]
pIC50 [2, 18]: 5.40
selectivity index (SI) T. brucei brucei versus HEK293 ([3]; HEK293): > 20
selectivity index (SI) T. brucei brucei versus HEPG2 ([3]; HEPG2 (PBox data)): > 20
pIC50 [3, 19]: 5.98
CC50 (HepG2; [24]): 31.5 µM
IC50 [5]: 1.52 µM
selectivity ratio at 72 h [6]: > 5

CC(C)=CCC/C(C)=C/CNCCNC1C2CC3CC(C2)CC1C3 (centres unmarked) [MMV687273, SQ-109]
IC50 [1]: 1.89 µM
activity against T. cruzi in the Discovery Biology assay [2]: active
IC50 ([2]; Trypanosoma cruzi, read-out: T cruzi Discovery Biology IC50 µM): 5.39 µM
activity against T. brucei brucei in the Discovery Biology assay [3]: active
pIC50 [3, 19]: 5.64
activity against L. donovani in the Discovery Biology assay [4]: active
pIC50 [4, 20]: 5.46
activity in the Discovery Biology ABS assay [9]: active
CC50 (HepG2; [24]): 7.1 µM
IC50 [5]: 1.43 µM
pIC50 ([5]; 3D7, read-out: activity against P. falciparum (novel antiplasmodial actives of the tuberculosis set)): > 5.70
selectivity ratio at 72 h [6]: > 5

Cc1cc(C2=NOC(c3cc(Cl)c(F)c(Cl)c3)(C(F)(F)F)C2)ccc1C(=O)NCc1ccc2c(c1)C(C)(C)OB2O (centres unmarked) [MMV687776]
selectivity index (SI) T. cruzi versus HEK293 ([2]; HEK293): > 8
selectivity index (SI) T. cruzi versus HEPG2 ([2]; HEPG2 (PBox data)): 4.3
pIC50 ([2]; Trypanosoma cruzi, PBox compounds, intracellular amastigotes, 48 h exposure, read-out: IC50 T. cruzi (Discovery Biology)): 5.62
activity in the HEK293 cytotoxicity assay (HEK293 cells [14]): did not display activity
HepG2 PBox CC20 μMc (HepG2): 10900 nM
pIC50 (HepG2): 4.96

CN1CCC(c2cc(-c3ccncc3)c(-c3ccc(F)cc3)[nH]2)CC1 [MMV688703]
activity in the Discovery Biology stage IV gametocyte (LSG) assay [1]: does not affect
pIC50 [15]: 8.07
pIC50 [5, 21]: 5.50

CCc1nn(C)c(C(=O)NCc2ccc(Oc3ccc(C)cc3)cc2)c1Cl [MMV688934, Tolfenpyrad]
pIC50 [10]: 5.27
pIC50 (T. brucei brucei): 4.48
pIC50 (T. brucei rhodesiense): 4.69
activity against the helminth barber's pole worm (barber's pole worm): activity
pIC50 [12]: 4.34

CC(c1cc(Cl)cc(Cl)c1)N(C)c1ncc2c(N)nc(N)nc2n1 (centres unmarked) [MMV689437]
activity against T. cruzi in the Discovery Biology assay [2]: demonstrated activity
pIC50 [2, 26]: 6.72
activity against T. brucei brucei in the Discovery Biology assay [3]: not active
activity against L. donovani in the Discovery Biology assay [4]: demonstrated activity
IC50 ([4]; Leishmania donovani, THP-1): 5.73 µM
activity in the Discovery Biology ABS assay [9]: not active
pIC50 [16]: 6.27
activity in the HEK293 cytotoxicity assay (HEK293 cells [7]): no activity

COc1ccc(Oc2ccc([C@@H](C)N(C)c3ncc4c(N)nc(N)nc4n3)cc2)cc1 [MMV690102]
activity against T. cruzi in the Discovery Biology assay [2]: demonstrated activity
pIC50 [2, 26]: 7.05
activity against T. brucei brucei in the Discovery Biology assay [3]: not active
activity against L. donovani in the Discovery Biology assay [4]: demonstrated activity
IC50 ([4]; Leishmania donovani, THP-1): 0.46 µM
activity in the Discovery Biology ABS assay [9]: not active
pIC50 [16]: 7.52
activity in the HEK293 cytotoxicity assay (HEK293 cells [7]): no activity

C[C@H](c1ccc2c(c1)CCCC2)N(C)c1ncc2c(N)nc(N)nc2n1 [MMV690103]
activity against T. cruzi in the Discovery Biology assay [2]: demonstrated activity
pIC50 [2, 26]: 7.00
activity against T. brucei brucei in the Discovery Biology assay [3]: not active
activity against L. donovani in the Discovery Biology assay [4]: demonstrated activity
IC50 ([4]; Leishmania donovani, THP-1): 5.2 µM
activity in the Discovery Biology ABS assay [9]: not active
pIC50 [16]: 6.33
activity in the HEK293 cytotoxicity assay (HEK293 cells [7]): no activity

From publication PMC5571359, “Screening the Medicines for Malaria Venture Pathogen Box across Multiple Pathogens Reclassifies Starting Points for Open-Source Drug Discovery” (Antimicrobial Agents and Chemotherapy, 2017)
